In the supplement of paper PMC10307832:

Experiments:
Assay in all cases: relative viability (nuclei count vs DMSO), 5 days (fraction); higher = more cells survive
[1] = compound: CN(C)CC1=CC(=CC=C1)N=C(C2=CC=CC=C2)C3=C(NC4=C3C=CC(=C4)C(=O)N(C)C)O + N=C(N)NC(=N)NCCc1ccccc1 [Phenformin] (partner 250 µM)
How it was run: (§1)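 The day after seeding in 1536-well plates, lung cancer cell lines were treated by pin tool with a single drug, or with a fixed anchor-drug dose together with five library-drug doses (not always all listed) in √10 steps. After 5 days, a combined fix-and-stain solution (final 0.05% Triton X-100, 1% formaldehyde, 1 ug/ml Hoechst) was added. Nuclei counted on 4× images gave relative viability as treated counts over vehicle counts, reported as the median of duplicate plates.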

[2] = compound: CN(C)CC1=CC(=CC=C1)N=C(C2=CC=CC=C2)C3=C(NC4=C3C=CC(=C4)C(=O)N(C)C)O + C[C@@H](Oc1cc(-c2cnn(C3CCNCC3)c2)cnc1N)c1c(Cl)ccc(F)c1Cl [Crizotinib] (partner 1 µM)
How it was run: as §1

[3] = compound: CN(C)CC1=CC(=CC=C1)N=C(C2=CC=CC=C2)C3=C(NC4=C3C=CC(=C4)C(=O)N(C)C)O + Nc1ncn([C@H]2C[C@H](O)[C@@H](CO)O2)c(=O)n1 [Decitabine] (partner 2 µM)
How it was run: as §1

[4] = compound: CN(C)CC1=CC(=CC=C1)N=C(C2=CC=CC=C2)C3=C(NC4=C3C=CC(=C4)C(=O)N(C)C)O + CC1(C)CCC(c2ccc(Cl)cc2)=C(CN2CCN(c3ccc(C(=O)NS(=O)(=O)c4ccc(N[C@H](CCN5CCOCC5)CSc5ccccc5)c(S(=O)(=O)C(F)(F)F)c4)cc3)CC2)C1 [Navitoclax] (partner 0.5 µM)
How it was run: as §1

Cell Line	relative viability ([1]; first compound 0.08 µM)	relative viability ([1]; first compound 0.253 µM)	relative viability ([1]; first compound 0.8 µM)	relative viability ([1]; first compound 2.53 µM)	relative viability ([1]; first compound 8 µM)	relative viability ([2]; first compound 0.08 µM)	relative viability ([2]; first compound 0.253 µM)	relative viability ([2]; first compound 0.8 µM)	relative viability ([2]; first compound 2.53 µM)	relative viability ([2]; first compound 8 µM)	relative viability ([3]; first compound 0.08 µM)	relative viability ([3]; first compound 0.253 µM)	relative viability ([3]; first compound 0.8 µM)	relative viability ([3]; first compound 2.53 µM)	relative viability ([3]; first compound 8 µM)	relative viability ([4]; first compound 0.08 µM)	relative viability ([4]; first compound 0.253 µM)	relative viability ([4]; first compound 0.8 µM)	relative viability ([4]; first compound 2.53 µM)	relative viability ([4]; first compound 8 µM)
LOU-NH91	0.697	0.652	0.548	0.714	0.699	0.777	0.723	0.689	0.746	0.712	0.781	0.822	0.757	0.803	0.818	0.756	0.687	0.548	0.653	0.638
NCI-H358	0.349	0.343	0.201	0.303	0.313	0.506	0.501	0.513	0.484	0.443	0.198	0.214	0.212	0.214	0.236					
NCI-H522	0.688	0.646	0.66	0.621	0.655						0.672	0.673	0.635	0.597	0.574					
NCI-H650	0.49	0.495	0.459	0.43	0.433	0.772	0.647	0.677	0.561	0.645	0.364	0.408	0.335	0.33	0.371					
NCI-H661	0.274	0.284	0.244	0.293	0.262		0.981	1.03	0.862	0.994	0.537	0.55	0.477	0.554	0.584					
NCI-H1299						0.92	0.93	0.988	0.834	0.939						1.14	1.05	1.09	1.03	1.01
NCI-H1395	0.377	0.488	0.465	0.417	0.417						0.752	0.757	0.759	0.727	0.758	1.23	1.13	1.22	0.965	1.12
NCI-H1648											0.418	0.568		0.538	0.544					
NCI-H1703						0.65	0.591	0.715	0.341	0.138						1.07	1.17	1.1	0.717	0.222
NCI-H1793	0.405	0.394		0.324	0.284						0.53	0.509	0.52	0.49	0.644	0.387	0.439	0.269	0.492	0.406
NCI-H2228	0.403	0.308	0.312	0.254	0.357	0.406	0.505	0.442	0.432	0.361						0.868	0.909	0.731	0.803	0.663
NCI-H2342	0.572	0.685	0.574	0.647	0.668						0.728	0.74	0.817	0.798	0.848					
SW 900	0.613	0.668	0.646	0.492	0.602						0.385	0.48	0.43	0.409	0.472					
